Patent US7217730B2, “Method for the use of pyranoindole derivatives to treat infection with Hepatitis C virus” (Wyeth, priority 2002, dated 2007)

Target: T1, NS5B from the BK strain (genotype 1b) (Hepatitis C virus genotype 1b, UniProt P26663)
T1 construct: NS5B from the BK strain (genotype 1b) is expressed in E. coli as a protein in which the 21 C-terminal amino acids are replaced; made in house; host or cells: E. coli
Assay: Hepatitis C polymerase inhibition, NS5B BK strain, 33P-GTP filter assay
Type: biochemical
Settings: Table 1A; for inhibition at 20 µM: read-out: HCV pol % inh at 20 μM; for IC50: NS5B BK strain, read-out: HCV pol BK IC50
Method in brief: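 E. coli-expressed NS5B (BK, genotype 1b) with the 21 C-terminal residues replaced by a linker-His6 tag was preincubated with compound for 15 min at room temperature. It then extended a hairpin-primed heteropolymeric RNA (~3 nM, ~760 nt product) with α-[33P]-GTP for 2 h at 22–25° C. The reaction was stopped with EDTA, and incorporated label was counted on filters.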

T1 sequence (P26663 2420-2989): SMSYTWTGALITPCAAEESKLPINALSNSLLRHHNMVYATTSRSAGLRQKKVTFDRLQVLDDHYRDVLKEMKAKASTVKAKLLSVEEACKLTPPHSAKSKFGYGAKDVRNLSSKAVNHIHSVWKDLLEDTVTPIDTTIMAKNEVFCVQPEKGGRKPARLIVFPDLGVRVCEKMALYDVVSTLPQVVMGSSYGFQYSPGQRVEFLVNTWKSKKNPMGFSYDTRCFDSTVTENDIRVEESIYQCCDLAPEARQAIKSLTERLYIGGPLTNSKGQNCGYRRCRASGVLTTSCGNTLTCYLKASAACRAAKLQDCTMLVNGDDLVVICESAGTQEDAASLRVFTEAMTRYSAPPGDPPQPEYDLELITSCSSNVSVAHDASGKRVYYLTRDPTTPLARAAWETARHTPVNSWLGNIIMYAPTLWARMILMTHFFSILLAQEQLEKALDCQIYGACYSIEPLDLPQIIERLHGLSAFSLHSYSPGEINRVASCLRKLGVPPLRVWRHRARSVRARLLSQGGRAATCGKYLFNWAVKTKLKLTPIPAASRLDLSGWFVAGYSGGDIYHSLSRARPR

Q: What does the source list for `Cc1cc(F)c2[nH]c3c(c2c1Br)CCOC3(CC(=O)O)c1ccc(C(=O)O)cc1` (centres unmarked) [Example 169, 4-[5-bromo-1-(carboxymethyl)-8-fluoro-6-methyl-1,3,4,9-tetrahydropyrano[3,4-b]indol-1-yl]benzoic acid]?
A: inhibition at 20 µM (20 μM compound): 82%; IC50: 0.22 µM

Q: For `CCC1(CC(=O)O)OCCc2c1[nH]c1c(C)cc(F)c(Br)c21` (centres unmarked) [Example 200, (5-bromo-1-ethyl-6-fluoro-8-methyl-1,3,4,9-tetrahydropyrano[3,4-b]indol-1-yl)acetic acid], which inhibition at 20 µM (20 μM compound) is on record?
A: Its inhibition at 20 µM is 83%.

Q: What about the IC50 of the same compound?
A: The IC50 was 2.1 µM.

Q: `CCC1(CC(=O)O)OCCc2c1[nH]c1c(C(F)(F)F)cccc21` (centres unmarked) [Example 116, [1-ethyl-8-(trifluoromethyl)-1,3,4,9-tetrahydropyrano[3,4-b]indol-1-yl]acetic acid] was tested. Which inhibition at 20 µM (20 μM compound) did it give?
A: Its inhibition at 20 µM is 34%.

Q: What about the IC50 of the same compound?
A: Its IC50 is > 20 µM.

Q: Which inhibition at 20 µM (20 μM compound) does the source give for `CCC1(CC(=O)O)OCCc2c1[nH]c1c(F)cc(C)c(Br)c21` (centres unmarked) [Example 164, (5-bromo-1-ethyl-8-fluoro-6-methyl-1,3,4,9-tetrahydropyrano[3,4-b]indol-1-yl)acetic acid] here?
A: The inhibition at 20 µM was 77%.

Q: And the IC50?
A: The IC50 was 2 µM.

Q: Which results are given for `CCCC1(CC(=O)O)OCCc2c1[nH]c1c(Cl)cc(Cl)cc21` (centres unmarked) [Example 101, (6,8-dichloro-1-propyl-1,3,4,9-tetrahydropyrano[3,4-b]indol-1-yl)acetic acid]?
A: inhibition at 20 µM (20 μM compound): 89%; IC50: 1.5 µM

Q: With “(8-fluoro-5-iodo-6-methyl-1-propyl-1,3,4,9-tetrahydropyrano[3,4-b]indol-1-yl)acetic acid [Example 218]” as the compound, how does the “HCV pol % inh at 20 μM” value (20 μM compound) read?
A: Its value is 92%.

Q: What about the IC50 of the same compound?
A: Its IC50 is 0.29 µM.

Q: What does the source list for `C/C=C/CCC1(CC(=O)O)OCCc2c1[nH]c1c(Cl)ccc(C(F)(F)F)c21` (centres unmarked) [Example 134, [8-chloro-1-[(3E)-pent-3-enyl]-5-(trifluoromethyl)-1,3,4,9-tetrahydropyrano[3,4-b]indol-1-yl]acetic acid]?
A: inhibition at 20 µM (20 μM compound): 28%; IC50: > 20 µM

Q: How did the inhibition at 20 µM (20 μM compound) turn out when `O=C(O)CC1(c2ccoc2)OCCc2c1[nH]c1c(Cl)cccc21` (centres unmarked) [Example 79, [8-chloro-1-(3-furyl)-1,3,4,9-tetrahydropyrano[3,4-b]indol-1-yl]acetic acid] was run?
A: The inhibition at 20 µM was 40%.

Q: And the IC50?
A: The IC50 was > 20 µM.

Q: Which inhibition at 20 µM (20 μM compound) does the source give for `CCCC1(CC(=O)O)OCCc2c1[nH]c1cccc(C#N)c21` (centres unmarked) [Example 58, (5-cyano-1-propyl-1,3,4,9-tetrahydro-pyrano[3,4-b]indol-1-yl)acetic acid] here?
A: The inhibition at 20 µM was 78%.

Q: And the IC50?
A: The IC50 was 6.9 µM.

Q: Which results are given for `O=C(O)CC1(c2ccccc2)OCCc2c1[nH]c1c(Cl)cc(Cl)c(Cl)c21` (centres unmarked) [Example 160, (5,6,8-trichloro-1-phenyl-1,3,4,9-tetrahydropyrano[3,4-b]indol-1-yl)acetic acid]?
A: inhibition at 20 µM (20 μM compound): 15%; IC50: > 20 µM

Q: `CCCC1(CC(=O)O)OCCc2c1[nH]c1cccc(-c3ccc(-c4ccccc4)cc3)c21` (centres unmarked) [Example 39, [5-(1,1′-biphenyl-4-yl)-1-propyl-1,3,4,9-tetrahydropyrano[3,4-b]indol-1-yl]acetic acid] was tested. Which inhibition at 20 µM (20 μM compound) did it give?
A: The inhibition at 20 µM was 7%.

Q: What about the IC50 of the same compound?
A: Its IC50 is > 20 µM.

Q: Which inhibition at 20 µM (20 μM compound) does the source give for `CCC1(CC(=O)O)OCCc2c1[nH]c1c(C)ccc(C)c21` (centres unmarked) [Example 138, (1-ethyl-5,8-dimethyl-1,3,4,9-tetrahydropyrano[3,4-b]indol-1-yl)acetic acid] here?
A: The inhibition at 20 µM was 38%.

Q: What about the IC50 of the same compound?
A: The IC50 was > 20 µM.

Q: What does the source list for `Cc1cc(F)c2[nH]c3c(c2c1C#N)CCOC3(CC(=O)O)c1ccccc1` (centres unmarked) [Example 171, (5-cyano-8-fluoro-6-methyl-1-phenyl-1,3,4,9-tetrahydropyrano[3,4-b]indol-1-yl)acetic acid]?
A: inhibition at 20 µM (20 μM compound): 3%; IC50: > 10 µM

Q: Which results are given for `CCCCC1(CC(=O)O)OCCc2c1[nH]c1c(C(F)(F)F)cccc21` (centres unmarked) [Example 119, [1-butyl-8-(trifluoromethyl)-1,3,4,9-tetrahydropyrano[3,4-b]indol-1-yl]acetic acid]?
A: inhibition at 20 µM (20 μM compound): 31%; IC50: > 20 µM

Q: For `CCCC1(CC(=O)O)OCCc2c1[nH]c1cccc(-c3ccccc3Cl)c21` (centres unmarked) [Example 44, [5-(2-chlorophenyl)-1-propyl-1,3,4,9-tetrahydropyrano[3,4-b]indol-1-yl]acetic acid], which inhibition at 20 µM (20 μM compound) is on record?
A: The inhibition at 20 µM was 41%.

Q: And the IC50?
A: Its IC50 is > 20 µM.

Q: What does the source list for `CC(C)C1(CC(=O)O)OCCc2c1[nH]c1c(Cl)ccc(Cl)c21` (centres unmarked) [Example 51, (5,8-dichloro-1-isopropyl-1,3,4,9-tetrahydropyrano[3,4-b]indol-1-yl)acetic acid]?
A: inhibition at 20 µM (20 μM compound): 84%; IC50: 7 µM

Q: `CCCC1(CC(=O)O)OCCc2c1[nH]c1c(C)ccc(F)c21` (centres unmarked) [Example 141, (5-fluoro-8-methyl-1-propyl-1,3,4,9-tetrahydropyrano[3,4-b]indol-1-yl)acetic acid] was tested. Which inhibition at 20 µM (20 μM compound) did it give?
A: The inhibition at 20 µM was 79%.

Q: What about the IC50 of the same compound?
A: The IC50 was 1.4 µM.

Q: How did the inhibition at 20 µM (20 μM compound) turn out when `CCCC1(CC(=O)O)OCCc2c1[nH]c1cccc(-c3ccc(C)cc3)c21` (centres unmarked) [Example 32, [5-(4-methylphenyl)-1-propyl-1,3,4,9-tetrahydropyrano[3,4-b]indol-1-yl]acetic acid] was run?
A: Its inhibition at 20 µM is < 5%.

Q: And the IC50?
A: The IC50 was > 20 µM.

Q: Which inhibition at 20 µM (20 μM compound) does the source give for `CCCC1(CC(=O)O)OCCc2c1[nH]c1cccc(-c3ccc(OC)cc3)c21` (centres unmarked) [Example 33, [5-(4-methoxyphenyl)-1-propyl-1,3,4,9-tetrahydropyrano[3,4-b]indol-1-yl]acetic acid] here?
A: Its inhibition at 20 µM is < 5%.

Q: What about the IC50 of the same compound?
A: The IC50 was > 20 µM.

Q: How did the inhibition at 20 µM (20 μM compound) turn out when `CCCCC1(CC(=O)O)OCCc2c1[nH]c1c(F)cc(F)c(Br)c21` (centres unmarked) [Example 191, (5-bromo-1-butyl-6,8-difluoro-1,3,4,9-tetrahydropyrano[3,4-b]indol-1-yl)acetic acid] was run?
A: Its inhibition at 20 µM is 93%.

Q: What about the IC50 of the same compound?
A: The IC50 was 0.4 µM.

Q: Which results are given for `Cc1cc(Cl)c2[nH]c3c(c2c1Br)CCOC3(CC(=O)O)c1ccccc1` (centres unmarked) [Example 179, (5-bromo-8-chloro-6-methyl-1-phenyl-1,3,4,9-tetrahydropyrano[3,4-b]indol-1-yl)acetic acid]?
A: inhibition at 20 µM (20 μM compound): 15%; IC50: > 5 µM

Q: `CCC1(CC(=O)O)OCCc2c1[nH]c1c(Br)cccc21` (centres unmarked) [Example 81, (8-bromo-1-ethyl-1,3,4,9-tetrahydropyrano[3,4-b]indol-1-yl)acetic acid] was tested. Which inhibition at 20 µM (20 μM compound) did it give?
A: The inhibition at 20 µM was 27%.

Q: And the IC50?
A: Its IC50 is > 20 µM.

Q: With `CCCC1(CC(=O)O)OCCc2c1[nH]c1c(-c3ccc(Cl)cc3)cccc21` (centres unmarked) [Example 92, [8-(4-chlorophenyl)-1-propyl-1,3,4,9-tetrahydropyrano[3,4-b]indol-1-yl]acetic acid] as the compound, how does the inhibition at 20 µM (20 μM compound) read?
A: The inhibition at 20 µM was 35%.

Q: What about the IC50 of the same compound?
A: Its IC50 is > 20 µM.

Q: How did the inhibition at 20 µM (20 μM compound) turn out when `CCCCC1(CC(=O)O)OCCc2c1[nH]c1c(Cl)cccc21` (centres unmarked) [Example 76, (1-butyl-8-chloro-1,3,4,9-tetrahydropyrano[3,4-b]indol-1-yl)acetic acid] was run?
A: The inhibition at 20 µM was 29%.

Q: What about the IC50 of the same compound?
A: The IC50 was > 20 µM.

Q: What does the source list for `C/C=C/CCC1(CC(=O)O)OCCc2c1[nH]c1cccc(Cl)c21` (centres unmarked) [Example 16, {5-chloro-1-[(3E)-pent-3-enyl]-1,3,4,9-tetrahydropyrano[3,4-b]indol-1-yl}acetic acid]?
A: inhibition at 20 µM (20 μM compound): < 5%; IC50: > 20 µM

Q: What does the source list for `O=C(O)CC1(c2ccccc2)OCCc2c1[nH]c1c(C(F)(F)F)cccc21` (centres unmarked) [Example 121, [1-phenyl-8-(trifluoromethyl)-1,3,4,9-tetrahydropyrano[3,4-b]indol-1-yl]acetic acid]?
A: inhibition at 20 µM (20 μM compound): < 5%; IC50: > 20 µM

Q: `CCCC1(CC(=O)O)OCCc2c1[nH]c1c(F)ccc(-c3ccccc3)c21` (centres unmarked) [Example 147, (8-fluoro-5-phenyl-1-propyl-1,3,4,9-tetrahydropyrano[3,4-b]indol-1-yl)acetic acid] was tested. Which inhibition at 20 µM (20 μM compound) did it give?
A: The inhibition at 20 µM was 34%.

Q: How did the inhibition at 20 µM (20 μM compound) turn out when `CCCCC1(CC(=O)O)OCCc2c1[nH]c1c(Br)ccc(Br)c21` (centres unmarked) [Example 213, (5,8-dibromo-1-butyl-1,3,4,9-tetrahydropyrano[3,4-b]indol-1-yl)acetic acid] was run?
A: Its inhibition at 20 µM is 87%.

Q: And the IC50?
A: Its IC50 is 0.28 µM.

Q: Which inhibition at 20 µM (20 μM compound) does the source give for `O=C(O)CC1(c2ccccc2)OCCc2c1[nH]c1c(Cl)ccc(Cl)c21` (centres unmarked) [Example 52, (5,8-dichloro-1-phenyl-1,3,4,9-tetrahydropyrano[3,4-b]indol-1-yl)acetic acid] here?
A: Its inhibition at 20 µM is 11%.

Q: And the IC50?
A: The IC50 was > 20 µM.

Q: `CCCCC1(CC(=O)O)OCCc2c1[nH]c1cccc(Br)c21` (centres unmarked) [Example 68, (5-bromo-1-butyl-1,3,4,9-tetrahydropyrano[3,4-b]indol-1-yl)acetic acid] was tested. Which inhibition at 20 µM (20 μM compound) did it give?
A: Its inhibition at 20 µM is 61%.

Q: And the IC50?
A: The IC50 was 10.3 µM.

Q: Which inhibition at 20 µM (20 μM compound) does the source give for `CC1(CC(=O)O)OCCc2c1[nH]c1ccc(Cl)c(Cl)c21` (centres unmarked) [Example 107, (5,6-dichloro-1-methyl-1,3,4,9-tetrahydropyrano[3,4-b]indol-1-yl)acetic acid] here?
A: Its inhibition at 20 µM is 50%.

Q: And the IC50?
A: Its IC50 is 19.1 µM.

Q: Which inhibition at 20 µM (20 μM compound) does the source give for `CCCC1(CC(=O)O)OCCc2c1[nH]c1c(F)cc(F)c(C#N)c21` (centres unmarked) [Example 195, (5-cyano-6,8-difluoro-1-propyl-1,3,4,9-tetrahydropyrano[3,4-b]indol-1-yl)acetic acid] here?
A: Its inhibition at 20 µM is 90%.

Q: What about the IC50 of the same compound?
A: The IC50 was 0.27 µM.

Q: For `CCCC1(CC(=O)O)OCCc2c1[nH]c1c(Br)ccc(Br)c21` (centres unmarked) [Example 211, (5,8-dibromo-1-propyl-1,3,4,9-tetrahydropyrano[3,4-b]indol-1-yl)acetic acid], which inhibition at 20 µM (20 μM compound) is on record?
A: The inhibition at 20 µM was 89%.

Q: And the IC50?
A: The IC50 was 0.13 µM.

Q: Which results are given for `CC(C)C1(CC(=O)O)OCCc2c1[nH]c1c(F)cc(F)c(Br)c21` (centres unmarked) [Example 193, (5-bromo-6,8-difluoro-1-isopropyl-1,3,4,9-tetrahydropyrano[3,4-b]indol-1-yl)acetic acid]?
A: inhibition at 20 µM (20 μM compound): 69%; IC50: 4.5 µM

Q: How did the inhibition at 20 µM (20 μM compound) turn out when `N#Cc1cccc2[nH]c3c(c12)CCOC3(CC(=O)O)c1ccccc1F` (centres unmarked) [Example 66, [5-cyano-1-(2-fluorophenyl)-1,3,4,9-tetrahydropyrano[3,4-b]indol-1-yl]acetic acid] was run?
A: The inhibition at 20 µM was 28%.

Q: What about the IC50 of the same compound?
A: The IC50 was > 20 µM.

Q: `CCCC1(CC(=O)O)OCCc2c1[nH]c1c(Cl)cc(C)c(I)c21` (centres unmarked) [Example 217, (8-chloro-5-iodo-6-methyl-1-propyl-1,3,4,9-tetrahydropyrano[3,4-b]indol-1-yl)acetic acid] was tested. Which inhibition at 20 µM (20 μM compound) did it give?
A: The inhibition at 20 µM was 88%.

Q: What about the IC50 of the same compound?
A: The IC50 was 0.63 µM.
